From patent US11572369B2, “Bicyclic pyridine compositions and methods of using the same for cancer therapy” (UNIVERSITY OF SOUTH CAROLINA, priority 2019, dated 2023)

Key:
Assay in all cases: KINOMEscan
Format in all cases: binding
Details in all cases: 2000 nM
RIOK3 = biological target: T1, RIOK3 (Homo sapiens, UniProt O14730)
T1 construct: DNA label (qPCR read-out); purchased DiscoveRx (KINOMEscan ScanMAX panel)

CDKL5 = biological target: T2, CDKL5 (Homo sapiens, UniProt O76039)
T2 construct: DNA label (for qPCR read-out); purchased DiscoveRx (KINOMEscan scanMAX service)

CLK2 = biological target: T3, CLK2 (Homo sapiens, UniProt P49760)
T3 construct: DNA label (for qPCR read-out); purchased DiscoveRx (KINOMEscan scanMAX service)

NEK3 = biological target: T4, NEK3 (Homo sapiens, UniProt P51956)
T4 construct: DNA label (qPCR read-out); purchased KINOMEscan (ScanMAX panel service)

FAK = biological target: T5, FAK (Homo sapiens, UniProt Q05397)
T5 construct: DNA label (qPCR read-out); purchased DiscoveRx (KINOMEscan ScanMAX panel)

FYN = biological target: T6, FYN (Homo sapiens, UniProt P06241)
T6 construct: purchased KINOMEscan (DiscoveRx)

CDC2L2 = biological target: T7, CDC2L2 (Homo sapiens, UniProt Q9UQ88)
T7 construct: purchased DiscoverX (KINOMEscan service)

YSK4 = YSK4 (Homo sapiens, UniProt Q56UN5)
EGFR(S752-I759del) = biological target: T8, EGFR(S752-I759del) (Homo sapiens, UniProt P00533, DEL752-759)
T8 construct: purchased DiscoveRx (KINOMEscan scanMAX panel)

TLK2 = biological target: T9, TLK2 (Homo sapiens, UniProt Q86UE8)
T9 construct: DNA label (qPCR read-out); purchased KINOMEscan (DiscoveRx) ScanMAX panel

PIK4CB = biological target: T10, PIK4CB (Homo sapiens, UniProt Q9UBF8)
T10 construct: DNA label; purchased DiscoveRx (KINOMEscan scanMAX panel)

RAF1 = biological target: T11, RAF1 (Homo sapiens, UniProt P04049)
T11 construct: purchased DiscoveRx (KINOMEscan scanMAX panel)

ULK1 = biological target: T12, ULK1 (Homo sapiens, UniProt O75385)
T12 construct: DNA label (for qPCR read-out); purchased DiscoveRx (KINOMEscan scanMAX panel)

MST3 = biological target: T13, MST3 (Homo sapiens, UniProt Q9Y6E0)
T13 construct: DNA label (for qPCR read-out); purchased KINOMEscan scanMAX panel (DiscoveRx)

EGFR(L747-T751del, Sins) = biological target: T14, EGFR(L747-T751del, Sins) (Homo sapiens, UniProt P00533, DEL747-750/T751S)
T14 construct: purchased DiscoveRx (KINOMEscan scanMAX panel)

[1] = biological target: T15, RSK3(Kin.Dom.1-N-terminal) (Homo sapiens, UniProt Q15349)
T15 construct: RSK3(Kin.Dom.1); purchased DiscoveRx (KINOMEscan scanMAX panel)

[2] = biological target: ABL1(M351T)-phosphorylated (Homo sapiens, UniProt P00519, M351T)
ZAK = ZAK (Homo sapiens, UniProt Q9NYL2)
[3] = biological target: ABL1(H396P)-phosphorylated (Homo sapiens, UniProt P00519, H396P)
YANK1 = biological target: T16, YANK1 (Homo sapiens, UniProt Q8WU08)
T16 construct: purchased KINOMEscan (DiscoveRx) panel service

CAMK2A = biological target: T17, CAMK2A (Homo sapiens, UniProt Q9UQM7)
T17 construct: DNA label (qPCR read-out); purchased KINOMEscan (ScanMAX panel service)

TIE1 = biological target: T18, TIE1 (Homo sapiens, UniProt P35590)
T18 construct: DNA label (qPCR read-out); purchased KINOMEscan (DiscoveRx) ScanMAX panel

PFTAIRE2 = biological target: T19, PFTAIRE2 (Homo sapiens, UniProt Q96Q40)
T19 construct: DNA label (for qPCR read-out); purchased DiscoveRx (KINOMEscan scanMAX service)

EPHB2 = biological target: T20, EPHB2 (Homo sapiens, UniProt P29323)
T20 construct: purchased DiscoveRx (KINOMEscan scanMAX panel)

S6K1 = biological target: T21, S6K1 (Homo sapiens, UniProt P23443)
T21 construct: purchased DiscoveRx (KINOMEscan scanMAX panel)

MUSK = biological target: T22, MUSK (Homo sapiens, UniProt O15146)
T22 construct: DNA label (for qPCR read-out); purchased KINOMEscan scanMAX panel (DiscoveRx)

LTK = biological target: T23, LTK (Homo sapiens, UniProt P29376)
T23 construct: purchased KINOMEscan (DiscoveRx) panel service

LCK = biological target: T24, LCK (Homo sapiens, UniProt P06239)
T24 construct: purchased KINOMEscan (DiscoveRx) panel service

AKT3 = biological target: T25, AKT3 (Homo sapiens, UniProt Q9Y243)
T25 construct: purchased DiscoveRx (KINOMEscan scanMAX panel, service)

ACVRL1 = biological target: T26, ACVRL1 (Homo sapiens, UniProt P37023)
T26 construct: purchased DiscoveRx (KINOMEscan scanMAX panel, service)

ALK = biological target: T27, ALK (Homo sapiens, UniProt Q9UM73)
T27 construct: purchased DiscoveRx (KINOMEscan scanMAX panel, service)

CAMK1D = biological target: T28, CAMK1D (Homo sapiens, UniProt Q8IU85)
T28 construct: DNA label (qPCR read-out); purchased KINOMEscan (ScanMAX panel service)

PKN2 = biological target: T29, PKN2 (Homo sapiens, UniProt Q16513)
T29 construct: DNA label (qPCR read-out); purchased KINOMEscan (DiscoveRx) panel

CSNK1A1 = biological target: T30, CSNK1A1 (Homo sapiens, UniProt P48729)
T30 construct: DNA label (qPCR read-out); purchased DiscoverX (assay service)

CDK8 = biological target: T31, CDK8 (Homo sapiens, UniProt P49336)
T31 construct: DNA label (qPCR read-out); purchased DiscoverX (assay service)

SIK = biological target: T32, SIK (Homo sapiens, UniProt P57059)
T32 construct: purchased KINOMEscan (DiscoveRx)
T32 sequence (P57059 whole entry): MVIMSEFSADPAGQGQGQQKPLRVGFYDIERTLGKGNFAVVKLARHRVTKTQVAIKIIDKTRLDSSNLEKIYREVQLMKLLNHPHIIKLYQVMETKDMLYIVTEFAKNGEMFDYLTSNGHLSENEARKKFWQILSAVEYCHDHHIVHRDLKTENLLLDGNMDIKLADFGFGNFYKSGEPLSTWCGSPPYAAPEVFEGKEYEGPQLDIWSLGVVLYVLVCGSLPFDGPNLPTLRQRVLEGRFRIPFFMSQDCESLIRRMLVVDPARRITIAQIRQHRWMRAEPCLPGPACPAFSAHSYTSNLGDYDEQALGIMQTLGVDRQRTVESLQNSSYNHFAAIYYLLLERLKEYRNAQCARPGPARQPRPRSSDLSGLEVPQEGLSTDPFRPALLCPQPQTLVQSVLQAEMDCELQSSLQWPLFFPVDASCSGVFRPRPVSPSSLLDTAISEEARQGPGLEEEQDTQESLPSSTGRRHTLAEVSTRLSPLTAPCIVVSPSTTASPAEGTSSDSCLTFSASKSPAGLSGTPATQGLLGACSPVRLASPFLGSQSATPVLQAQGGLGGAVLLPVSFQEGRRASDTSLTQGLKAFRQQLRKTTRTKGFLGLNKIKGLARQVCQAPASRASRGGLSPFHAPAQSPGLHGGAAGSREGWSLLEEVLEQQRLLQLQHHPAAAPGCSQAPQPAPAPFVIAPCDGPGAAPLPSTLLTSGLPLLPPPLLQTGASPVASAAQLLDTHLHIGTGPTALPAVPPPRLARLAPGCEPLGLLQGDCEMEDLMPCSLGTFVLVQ

T18 sequence (P35590 22-1138): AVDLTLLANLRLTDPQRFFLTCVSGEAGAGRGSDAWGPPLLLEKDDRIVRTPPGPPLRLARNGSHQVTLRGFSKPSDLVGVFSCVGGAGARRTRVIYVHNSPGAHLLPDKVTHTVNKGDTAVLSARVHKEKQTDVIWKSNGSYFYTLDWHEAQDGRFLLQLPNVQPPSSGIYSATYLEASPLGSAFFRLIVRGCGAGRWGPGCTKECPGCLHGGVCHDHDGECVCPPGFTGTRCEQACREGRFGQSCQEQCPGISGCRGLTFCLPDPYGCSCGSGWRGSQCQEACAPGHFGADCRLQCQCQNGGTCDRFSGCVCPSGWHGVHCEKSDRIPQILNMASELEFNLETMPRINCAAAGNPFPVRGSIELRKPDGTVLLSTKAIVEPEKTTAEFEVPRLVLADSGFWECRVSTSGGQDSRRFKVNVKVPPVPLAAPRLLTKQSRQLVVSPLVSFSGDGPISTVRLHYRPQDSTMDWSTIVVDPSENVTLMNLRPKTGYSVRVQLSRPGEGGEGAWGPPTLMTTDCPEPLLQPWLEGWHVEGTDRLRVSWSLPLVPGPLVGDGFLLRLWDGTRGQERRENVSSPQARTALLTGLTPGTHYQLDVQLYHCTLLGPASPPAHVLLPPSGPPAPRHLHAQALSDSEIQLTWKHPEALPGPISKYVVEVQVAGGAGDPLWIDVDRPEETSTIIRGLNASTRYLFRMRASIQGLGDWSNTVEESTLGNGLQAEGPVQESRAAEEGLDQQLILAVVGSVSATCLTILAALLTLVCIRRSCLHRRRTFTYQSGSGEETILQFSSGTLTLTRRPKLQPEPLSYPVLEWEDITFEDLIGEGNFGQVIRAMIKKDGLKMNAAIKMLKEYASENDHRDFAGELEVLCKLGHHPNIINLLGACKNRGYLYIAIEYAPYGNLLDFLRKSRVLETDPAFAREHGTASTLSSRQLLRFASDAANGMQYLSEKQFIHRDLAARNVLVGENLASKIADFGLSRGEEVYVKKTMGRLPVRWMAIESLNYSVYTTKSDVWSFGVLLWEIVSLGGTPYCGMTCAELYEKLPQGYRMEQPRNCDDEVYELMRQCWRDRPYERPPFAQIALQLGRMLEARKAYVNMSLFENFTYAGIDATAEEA
T12 sequence (O75385 whole entry): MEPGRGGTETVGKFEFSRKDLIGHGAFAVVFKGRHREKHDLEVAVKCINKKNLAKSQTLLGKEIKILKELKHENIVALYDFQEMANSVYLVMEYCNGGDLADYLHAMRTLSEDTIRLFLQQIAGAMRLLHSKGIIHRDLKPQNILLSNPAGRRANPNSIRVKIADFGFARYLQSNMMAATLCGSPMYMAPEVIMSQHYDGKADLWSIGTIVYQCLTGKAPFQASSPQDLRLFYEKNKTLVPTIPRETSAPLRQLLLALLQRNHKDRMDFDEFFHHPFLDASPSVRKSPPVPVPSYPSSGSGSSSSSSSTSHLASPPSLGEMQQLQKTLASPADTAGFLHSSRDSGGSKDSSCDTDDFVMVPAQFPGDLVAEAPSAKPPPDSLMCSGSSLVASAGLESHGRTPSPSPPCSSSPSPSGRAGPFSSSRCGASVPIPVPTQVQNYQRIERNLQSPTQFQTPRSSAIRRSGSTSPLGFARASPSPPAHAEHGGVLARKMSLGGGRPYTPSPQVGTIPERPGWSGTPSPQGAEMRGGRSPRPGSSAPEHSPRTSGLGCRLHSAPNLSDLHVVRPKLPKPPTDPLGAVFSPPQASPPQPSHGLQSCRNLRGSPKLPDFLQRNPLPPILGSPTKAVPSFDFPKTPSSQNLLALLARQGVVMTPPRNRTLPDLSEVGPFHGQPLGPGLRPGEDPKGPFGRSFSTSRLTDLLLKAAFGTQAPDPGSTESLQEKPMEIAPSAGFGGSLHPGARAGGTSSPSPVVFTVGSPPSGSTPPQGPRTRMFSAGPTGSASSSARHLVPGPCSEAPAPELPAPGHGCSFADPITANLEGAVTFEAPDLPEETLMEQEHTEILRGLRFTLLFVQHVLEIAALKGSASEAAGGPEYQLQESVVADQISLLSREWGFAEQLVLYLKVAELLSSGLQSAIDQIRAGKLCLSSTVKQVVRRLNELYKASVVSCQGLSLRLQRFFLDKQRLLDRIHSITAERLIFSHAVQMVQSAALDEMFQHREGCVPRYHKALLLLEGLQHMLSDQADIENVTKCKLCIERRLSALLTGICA
T29 sequence (Q16513 whole entry): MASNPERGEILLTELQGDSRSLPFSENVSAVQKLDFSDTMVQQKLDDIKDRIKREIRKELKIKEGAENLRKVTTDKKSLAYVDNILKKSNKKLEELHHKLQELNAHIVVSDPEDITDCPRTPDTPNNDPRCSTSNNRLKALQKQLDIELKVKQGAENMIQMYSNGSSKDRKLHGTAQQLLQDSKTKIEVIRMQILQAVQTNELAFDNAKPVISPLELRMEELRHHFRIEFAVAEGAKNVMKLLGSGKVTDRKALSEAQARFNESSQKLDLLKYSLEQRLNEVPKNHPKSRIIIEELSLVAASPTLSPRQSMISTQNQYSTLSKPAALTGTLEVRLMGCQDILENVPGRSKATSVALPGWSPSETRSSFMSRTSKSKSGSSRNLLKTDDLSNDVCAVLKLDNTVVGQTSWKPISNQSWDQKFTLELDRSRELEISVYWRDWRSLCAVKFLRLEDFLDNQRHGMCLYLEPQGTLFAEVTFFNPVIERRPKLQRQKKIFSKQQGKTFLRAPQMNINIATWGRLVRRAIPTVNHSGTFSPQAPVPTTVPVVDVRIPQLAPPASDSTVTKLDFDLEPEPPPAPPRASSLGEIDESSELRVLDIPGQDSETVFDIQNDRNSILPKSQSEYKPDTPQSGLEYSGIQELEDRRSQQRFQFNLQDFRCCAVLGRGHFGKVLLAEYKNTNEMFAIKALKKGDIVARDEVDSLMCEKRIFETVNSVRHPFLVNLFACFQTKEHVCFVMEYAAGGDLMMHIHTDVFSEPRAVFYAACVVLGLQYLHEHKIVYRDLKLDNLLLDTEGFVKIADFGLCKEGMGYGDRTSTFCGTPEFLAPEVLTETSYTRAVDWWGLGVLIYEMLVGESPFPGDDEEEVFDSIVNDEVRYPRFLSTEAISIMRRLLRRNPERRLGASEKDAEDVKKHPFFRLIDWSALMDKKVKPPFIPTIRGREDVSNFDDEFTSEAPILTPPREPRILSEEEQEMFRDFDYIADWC
T17 sequence (Q9UQM7 whole entry): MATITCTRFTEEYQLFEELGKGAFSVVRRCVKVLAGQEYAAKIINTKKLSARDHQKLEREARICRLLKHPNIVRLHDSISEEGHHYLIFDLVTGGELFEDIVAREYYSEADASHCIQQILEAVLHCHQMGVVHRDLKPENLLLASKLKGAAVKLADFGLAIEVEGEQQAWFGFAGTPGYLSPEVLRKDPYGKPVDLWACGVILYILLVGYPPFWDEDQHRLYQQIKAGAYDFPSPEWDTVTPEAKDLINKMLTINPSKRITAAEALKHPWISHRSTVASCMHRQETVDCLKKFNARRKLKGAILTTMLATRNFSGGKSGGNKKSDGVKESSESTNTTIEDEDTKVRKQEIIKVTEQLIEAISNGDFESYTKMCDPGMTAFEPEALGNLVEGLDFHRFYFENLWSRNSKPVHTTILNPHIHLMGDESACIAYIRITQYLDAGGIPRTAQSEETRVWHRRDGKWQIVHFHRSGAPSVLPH
T26 sequence (P37023 22-503): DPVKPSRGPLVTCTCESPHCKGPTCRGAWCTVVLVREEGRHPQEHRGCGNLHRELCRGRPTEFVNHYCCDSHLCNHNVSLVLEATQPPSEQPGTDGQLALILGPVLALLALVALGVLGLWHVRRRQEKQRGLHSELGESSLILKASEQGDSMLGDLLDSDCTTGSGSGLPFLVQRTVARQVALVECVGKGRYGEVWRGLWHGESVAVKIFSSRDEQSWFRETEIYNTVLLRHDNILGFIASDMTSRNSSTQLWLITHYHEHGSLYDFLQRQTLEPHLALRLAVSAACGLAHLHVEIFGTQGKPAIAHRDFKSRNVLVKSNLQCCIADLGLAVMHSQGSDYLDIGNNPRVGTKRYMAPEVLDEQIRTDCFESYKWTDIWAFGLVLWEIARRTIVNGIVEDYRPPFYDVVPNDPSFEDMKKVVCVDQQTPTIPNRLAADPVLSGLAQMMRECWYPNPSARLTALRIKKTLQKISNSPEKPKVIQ

Structure (SMILES)	% Ctrl (RIOK3)	% Ctrl (CDKL5)	% Ctrl (CLK2)	% Ctrl (NEK3)	% Ctrl (FAK)	% Ctrl (FYN)	% Ctrl (CDC2L2)	% Ctrl (YSK4)	% Ctrl (EGFR(S752-I759del))	% Ctrl (TLK2)	% Ctrl (PIK4CB)	% Ctrl (RAF1)	% Ctrl (ULK1)	% Ctrl (MST3)	% Ctrl (EGFR(L747-T751del, Sins))	% Ctrl [1]	% Ctrl [2]	% Ctrl (ZAK)	% Ctrl [3]	% Ctrl (YANK1)	also measured
CN(C)C(=O)c1ccc(N2CCCN(c3ccnc4sc(C(N)=O)c(N)c34)CC2)cc1 [15u, 3-amino-4-(4-(4-(dimethylcarbamoyl)phenyl)-1,4-diazepan-1-yl)thieno[2,3-b]pyridine-2-carboxamide]	100 % Ctrl	100 % Ctrl	75 % Ctrl	100 % Ctrl	100 % Ctrl	99 % Ctrl	100 % Ctrl	74 % Ctrl	86 % Ctrl	100 % Ctrl	65 % Ctrl	97 % Ctrl	96 % Ctrl	97 % Ctrl	87 % Ctrl	99 % Ctrl	100 % Ctrl	94 % Ctrl	94 % Ctrl	89 % Ctrl	% Ctrl (CAMK2A): 90 % Ctrl; % Ctrl (TIE1): 90 % Ctrl; % Ctrl (PFTAIRE2): 100 % Ctrl; % Ctrl (EPHB2): 99 % Ctrl; % Ctrl (S6K1): 95 % Ctrl; % Ctrl (MUSK): 94 % Ctrl; % Ctrl (LTK): 90 % Ctrl; % Ctrl (LCK): 91 % Ctrl; % Ctrl (AKT3): 97 % Ctrl; % Ctrl (ACVRL1): 99 % Ctrl; % Ctrl (ALK): 81 % Ctrl; % Ctrl (CAMK1D): 87 % Ctrl; % Ctrl (PKN2): 100 % Ctrl; % Ctrl (CSNK1A1): 33 % Ctrl; % Ctrl (CDK8): 2.6 % Ctrl; % Ctrl (SIK): 84 % Ctrl
[2H]C([2H])([2H])N(C(=O)c1ccc(N2CCCN(c3ccnc4sc(C(N)=O)c(N)c34)CC2)cc1)C([2H])([2H])[2H] [15u_D6, 3-amino-4-(4-(4-(bis(methyl-d3)carbamoyl)phenyl)-1,4-diazepan-1-yl)thieno[2,3-b]pyridine-2-carboxamide]	95 % Ctrl	84 % Ctrl	83 % Ctrl	76 % Ctrl	96 % Ctrl	97 % Ctrl	100 % Ctrl	53 % Ctrl	100 % Ctrl	97 % Ctrl	33 % Ctrl	100 % Ctrl	72 % Ctrl	84 % Ctrl	100 % Ctrl	77 % Ctrl	77 % Ctrl	100 % Ctrl	77 % Ctrl	97 % Ctrl	% Ctrl (CAMK2A): 100 % Ctrl; % Ctrl (TIE1): 96 % Ctrl; % Ctrl (PFTAIRE2): 80 % Ctrl; % Ctrl (EPHB2): 95 % Ctrl; % Ctrl (S6K1): 89 % Ctrl; % Ctrl (MUSK): 82 % Ctrl; % Ctrl (LTK): 77 % Ctrl; % Ctrl (LCK): 100 % Ctrl; % Ctrl (AKT3): 100 % Ctrl; % Ctrl (ACVRL1): 100 % Ctrl; % Ctrl (ALK): 78 % Ctrl; % Ctrl (CAMK1D): 93 % Ctrl; % Ctrl (PKN2): 100 % Ctrl; % Ctrl (CSNK1A1): 12 % Ctrl; % Ctrl (CDK8): 0.25 % Ctrl; % Ctrl (SIK): 79 % Ctrl
